Structures can show the parent of a compound that is named as a salt. Where two headings read alike, the source gives them in different places.
How the values were obtained:
Cryptosporidium parvum = assay: qRT-PCR assay of the growth of C. parvum in vitro in HCT-8 host cells (primary and secondary screening, EC50); type: cell-based; conditions: Cryptosporidium parvum, HCT-8; for inhibition at 10 µM: primary screening at 10 uM, read-out: Inhibition (%); for inhibition at 3.3 µM: secondary screening at 3.3 uM, read-out: % Inhibition (3.3 uM)
[1] = primary screening at 10 uM, treated vs control

SMILES | cytotoxicity at 10 µM (in vitro) [%] | Hs18S ΔCT (HCT-8 host cells (Hs18S); [1]) | inhibition at 10 µM (Cryptosporidium parvum) [%] | cytotoxicity at 41 h, 10 µM (in vitro; human) [%] | Hs18S ΔCT (HCT-8 host cells (Hs18S); human, 41 h, 10 μM) | Hs18S ΔCT (HCT-8 host cells (Hs18S)) | inhibition at 3.3 µM (Cryptosporidium parvum) [%] | cytotoxicity at 41 h, 10 µM (in vitro) [%]
C[C@@H]1CC[C@@]2(NC1)O[C@H]1C[C@H]3[C@@H]4CC=C5C[C@@H](O)CC[C@]5(C)[C@H]4CC[C@]3(C)[C@H]1[C@@H]2C [SOLASODINE] | 4.6 | 0.07 | -28.3 |  |  |  |  | 
CC(C)=CCC[C@@H](C)[C@H]1CC[C@@]2(C)C3=C(CC[C@]12C)[C@@]1(C)CC[C@H](O)C(C)(C)[C@@H]1CC3 [LANOSTEROL] |  |  | -22.5 | -18.1 | -0.24 |  |  | 
COC(=O)C[C@H]1C(C)(C)[C@@H](OC(C)=O)[C@@H]2CC3=C4CC(=O)O[C@@H](c5ccoc5)[C@]4(C)CC[C@@H]3[C@@]1(C)C2=O [FISSINOLIDE] |  |  | -39.8 | -75.3 | -0.81 |  |  | 
O=c1ccc2ccccc2o1 [COUMARIN] |  |  | 13 | -3.8 | -0.05 |  |  | 
COc1cc(O)c(C(=O)c2ccccc2)cc1O [CEAROIN] |  |  | -22.5 | -21 | -0.27 |  |  | 
NCCc1c[nH]cn1 [HISTAMINE DIHYDROCHLORIDE] | 1.3 |  | -20.6 |  |  | 0.02 |  | 
C[C@]12CC[C@H](O)C[C@H]1CC[C@@H]1[C@@H]2C[C@@H](O)[C@]2(C)[C@@H](C3=CC(=O)OC3)CC[C@]12O [DIGOXIGENIN] | 19.2 | 0.33 | 95.6 |  |  |  | 69 | 
C=C[C@H]1C[N@@]2CC[C@H]1C[C@H]2[C@H](O)c1ccnc2ccc(OC)cc12 [QUININE SULFATE] |  |  | -15.4 | -8.7 | -0.12 |  |  | 
CC(C)=CCC/C(C)=C/CC/C(C)=C/CO [FARNESOL] |  |  | 8.75 | 1 | 0.02 |  |  | 
COc1cc(O)ccc1C(C)=O [ISOPEONOL] |  |  | -12.8 | 2.3 | 0.03 |  |  | 
N#C[C@H](O[C@@H]1O[C@H](CO[C@@H]2O[C@H](CO)[C@@H](O)[C@H](O)[C@H]2O)[C@@H](O)[C@H](O)[C@H]1O)c1ccccc1 [AMYGDALIN] | 4.8 | 0.07 | -15.6 |  |  |  |  | 
CN1[C@@H]2C[C@@H](OC(=O)[C@H](CO)c3ccccc3)C[C@H]1[C@@H]1O[C@@H]12 [SCOPOLAMINE HYDROBROMIDE] | -29.6 | -0.37 | 14 |  |  |  |  | 
COc1ccc(-c2cc(=O)c3c(O)cc(OC)cc3o2)cc1 [APIGENIN DIMETHYL ETHER] | 11.3 | 0.17 | -37.8 |  |  |  |  | 
CC(=O)O[C@H]1C(=O)[C@@]2(C)[C@H]([C@H](OC(=O)c3ccccc3)[C@]3(O)C[C@H](O)C(C)=C1C3(C)C)[C@]1(OC(C)=O)CO[C@@H]1C[C@@H]2O [BACCATIN III] | 5.2 | 0.08 | 1.76 |  |  |  |  | 
C[C@]1(OC(=O)/C=C/c2ccccc2)C[C@@H](O)[C@]2(O)C=CO[C@@H](O[C@@H]3O[C@H](CO)[C@@H](O)[C@H](O)[C@H]3O)[C@@H]21 [HARPAGOSIDE] |  |  | -42.1 | 21.8 | 0.36 |  |  | 
O=C1C=C(O)C(=O)c2ccccc21 [LAWSONE] |  |  | -46.1 | -12 | -0.16 |  |  | 
Oc1ccc([C@H]2Oc3cc(O)cc(O)c3C[C@H]2O)cc1 [EPIAFZELECHIN (2R,3R)(-)] |  |  | -2.1 | -10.2 | -0.14 |  |  | 
COc1cc(/C=C/C(=O)CC(=O)/C=C/c2ccc(O)c(OC)c2)ccc1O [CURCUMIN] |  | 0.03 | 24.3 | 2.4 |  |  |  | 
O=C(/C=C/c1ccccc1)c1ccc(O[C@@H]2O[C@H](CO)[C@@H](O)[C@H](O)[C@H]2O)cc1O [2',4'-DIHYDROXYCHALCONE 4'-GLUCOSIDE] |  |  | -19.5 | 1.9 | 0.03 |  |  | 

SMILES | cytotoxicity at 10 µM (in vitro) [%] | Hs18S ΔCT (HCT-8 host cells (Hs18S); [1]) | inhibition at 10 µM (Cryptosporidium parvum) [%] | cytotoxicity at 41 h, 10 µM (in vitro; human) [%] | Hs18S ΔCT (HCT-8 host cells (Hs18S); human, 41 h, 10 μM) | Hs18S ΔCT (HCT-8 host cells (Hs18S)) | inhibition at 3.3 µM (Cryptosporidium parvum) [%] | cytotoxicity at 41 h, 10 µM (in vitro) [%]
CC(C)/C(O)=C1/C(=O)O[C@@H](c2ccoc2)[C@]2(C)C(O)[C@@H](O)[C@@]34OC5(C)OC67CC(C)(C(O)[C@]6(O)[C@@H](O)[C@]3(O5)C12)[C@H](CC(=O)O)[C@]74C (some centres unmarked) [HYDROLYSIS PRODUCT OF BUSSEIN] |  |  | 8.3 | -60.9 | -0.69 |  |  | 
CN[C@@H]1[C@@H](O)[C@@H](O[C@@H]2[C@@H](O)[C@H](O[C@H]3OC(CN)=CC[C@H]3N)[C@@H](N)C[C@H]2N)OC[C@]1(C)O [SISOMICIN SULFATE] |  |  | 41.1 | -7.8 | -0.11 |  |  | 
O=C(O)[C@]1(O)C[C@@H](O)[C@@H](O)[C@H](O)C1 [QUINIC ACID] |  |  | 69.4 | 14.6 | 0.23 |  | -6 | 
Nc1ncnc2nc[nH]c12 [ADENINE] |  | -0.08 | -9.27 | -5.9 |  |  |  | 
O=C(O)[C@@H](O)[C@](O)(Cc1ccc(O)cc1)C(=O)O [PISCIDIC ACID] | -1.7 | -0.03 | -5.12 |  |  |  |  | 
Cc1cc(OC(=O)c2c(C)cc(O)cc2O)cc(O)c1C(=O)O [LECANORIC ACID] |  |  | -20 | -1.2 | -0.02 |  |  | 
O=C(O)c1ccc2c(c1)OCO2 [PIPERONYLIC ACID] | -3.1 | -0.04 | 30.3 |  |  |  |  | 
COC(=O)CC[C@@H](C)[C@H]1CC[C@H]2[C@@H]3CC[C@@H]4C[C@H](O)CC[C@]4(C)[C@H]3C[C@H](O)[C@]12C [METHYL DEOXYCHOLATE] |  |  | 23.4 | 36.7 | 0.66 |  |  | 
O=C1c2ccccc2C(=O)c2c(O)c(O)cc(O)c21 [PURPURIN] |  | -0.19 | -37.2 | -14.3 |  |  |  | 
COc1c(-c2coc3cc4c(cc3c2=O)CC(OC(C)=O)C(C)(C)O4)ccc2c1C=CC(C)(C)O2 (centres unmarked) [MUNDULONE ACETATE] |  |  | -3.19 | 22.6 | 0.37 |  |  | 
C[C@H](CCC(=O)NCC(=O)O)[C@H]1CC[C@H]2[C@@H]3[C@H](O)C[C@@H]4C[C@H](O)CC[C@]4(C)[C@H]3C[C@H](O)[C@]12C [GLYCOCHOLIC ACID] | -23.7 |  | -58.4 |  | -0.31 |  |  | 
O=C(O)[C@@H](O)[C@H](O)[C@H](O)[C@@H](O)C(=O)O [MUCIC ACID] |  |  | -14.3 | -13.8 | -0.19 |  |  | 
C[C@@H]1CC[C@@]2(OC1)O[C@H]1[C@@H](O)[C@H]3[C@@H]4CC[C@H]5C[C@@H](O[C@@H]6O[C@H](CO)[C@H](O[C@@H]7O[C@H](CO)[C@@H](O)[C@H](O[C@@H]8OC[C@@H](O)[C@H](O)[C@H]8O)[C@H]7O[C@@H]7O[C@H](CO)[C@H](O)[C@H](O[C@@H]8O[C@H](CO)[C@@H](O)[C@H](O)[C@H]8O)[C@H]7O)[C@H](O)[C@H]6O)[C@H](O)C[C@]5(C)[C@H]4CC[C@]3(C)[C@H]1[C@@H]2C [DIGITONIN] | -8.8 | -0.12 | -16.6 |  |  |  |  | 
CC(C)CCC[C@@H](C)[C@H]1CC[C@H]2[C@@H]3CC(=O)[C@H]4C[C@@H](O)CC[C@]4(C)[C@H]3CC[C@]12C [5alpha-CHOLESTAN-3beta-OL-6-ONE] |  | 0.53 | -27.8 |  |  |  |  | 30.6
NC[C@H]1O[C@H](O[C@H]2[C@H](O)[C@@H](O[C@H]3O[C@H](CO)[C@@H](O)[C@H](N)[C@H]3O)[C@H](N)C[C@@H]2N)[C@H](N)[C@@H](O)[C@@H]1O [BEKANAMYCIN SULFATE] |  |  | 4.16 | 8.7 | 0.13 |  |  | 
O=C(/C=C/c1ccc(O)c(O)c1)O[C@H](Cc1ccc(O)c(O)c1)C(=O)O [ROSMARINIC ACID] |  |  | 37.3 | -3.1 | -0.04 |  |  | 
COc1ccc([C@H]2COc3c(ccc(O)c3OC)C2)c(OC)c1O [DUARTIN (-)] |  |  | -26.9 | -15.3 | -0.20 |  |  | 
C=C(C)[C@H]1CN[C@H](C(=O)O)[C@H]1CC(=O)O [KAINIC ACID] | -2.6 | -0.04 | -19.9 |  |  |  |  | 

Source: publication PMC6736568, “Discovery of Novel Anti-cryptosporidial Activities From Natural Products by in vitro High-Throughput Phenotypic Screening” (Frontiers in Microbiology, 2019)
